Data reported in patent US8871741B2, “Inhibition of TNF-α induced activation of NFKB by pentosan polysulfate” (Icahn School of Medicine at Mount Sinai, priority 2010, dated 2014).

How the values were obtained:
[1] = test system: MMP-2; test: Zymography of aortic extracts; type: in vivo, rabbit; settings: PPS-treated WHHL rabbits, 75 days HC-diet
Experimental: (§1) MMP activity in aortic extracts and conditioned media from monocytes was assessed, as previously described (Jacot T A, et al., Lab Invest. 1996; 75:791-79). Briefly, aortic segments were homogenized and extracted in RIPA buffer (25 mM Tris, pH 7.4, 150 mM KCl, 5 mM EDTA, 1% Nonidet P-40, 0.5% sodium deoxycholate, and 0.1% SDS). Insoluble material was precipitated by centrifugation, and soluble extracts were collected and stored at −20° C. for further analysis. For in vitro experiments, cell supernatants were centrifuged to remove cellular debris, and diluted appropriately to normalize for cell number. Aortic extracts and conditioned media were then mixed with sample buffer (1% SDS, 0.08 M Tris pH 6.8, 4% glycerol, and 0.006% bromophenol blue), and loaded onto a 10% gelatin polyacrylamide gel, and processed as described (Jacot T A, et al., Lab Invest. 1996; 75:791-79). For reverse zymography, samples were loaded onto a 15% gelatin polyacrylamide gel containing 0.5% porcine gelatin and 6 μg recombinant gelatinase A, and processed as described (Elliot S J, et al., J Am Soc Nephrol. 1999; 10: 62-68).

[2] = test system: hepatic lipase; test: Post-heparin hepatic lipase activity in WHHL rabbits; type: in vivo, rabbit; settings: end of treatment period
Experimental: Blood was drawn from rabbits after a 12-hour fast into tubes containing EDTA at the beginning of the study, every two weeks during treatment with the atherogenic diet, and at the end of the study. The total cholesterol and triglyceride concentrations (Sigma) as well as unesterified cholesterol and phospholipids (Wako Chemicals, Richmond, Va.) were determined on plasma samples using enzymatic methods on a Hitachi 911 Autoanalyzer (Boehringer Mannheim). Post-heparin hepatic lipase activity was determined as described (Iverius P H, Brunzell J D. Am J Physiol 1985; 249: E107-E114).

[3] = test system: TIMP-1, -2, and -3; test: Reverse zymography of aortic extracts; type: in vivo, rabbit; settings: PPS-treated WHHL rabbits, 75 days HC-diet
Experimental: as §1

[4] = test system: IκB; test: TNFα stimulated IκB phosphorylation in proximal tubular cells, Western-blot; type: cell-based, mouse; settings: proximal tubular cells treated with PPS (400 μg/ml, ½ hour) before TNFα 10 ng/ml
Experimental: The activation of NF-κB and mitogen activated protein kinases including p38, JNK (Jun N-terminal kinase), and ERK (extracellular signal regulated kinase) pathways play an essential role in proinflammatory actions of TNFα. Thus, it was examined whether PPS affected the phosphorylation of IκB, ERK, p38, and JNK by TNFα. Proximal tubular cells were allowed to grow to 70% confluency in […] petri-dish. Cell lysates were collected before or 15, 30, 60, and 120 minutes after TNFα treatment (10 ng/ml). Cells in some dishes were pre-incubated with PPS (400 μg/ml) for ½ hour before exposure to TNFα. The levels of phosphorylated IκB, ERK, p38, and JNK were determined by Western-blots. Briefly, equal amounts of protein samples (10-20 μg/lane) were loaded onto SDS-PAGE gels. After electrophoresis, proteins were transferred to nitrocellulose membranes and blotted with antibody against phosphorylated IκB, ERK, p38, or JNK (Cell signaling, Boston, Mass.). After the first analysis, the membranes were stripped to re-probe with antibody against total IκB, ERK, p38 or JNK, and ERK and finally with antibody against β-actin (Cell signaling, Boston, Mass.).

[5] = test system: MMP-2/MMP-9; test: Net MMP activity in aortic extracts, synthetic colorimetric substrate; type: in vivo, rabbit; settings: aortic arch extracts, WHHL rabbits treated with PPS; P<0.05
Experimental: as §1
MMP-2/MMP-9 net activity in aortic extracts was evaluated by using a synthetic colorimetric substrate [Ac-Pro-Leu-Gly-(2-mercapto-4-methylpentanoyl)-Leu-Gly-Oet; Calbiochem, Cambridge, Mass.], according to the manufacturer's directions.

[6] = test system: phosphorylated NF-κB (p65 (Ser276)); test: Immunostaining for nuclear phosphorylated NF-κB in kidney; type: in vivo, mouse; settings: PPS treated 22 month-old diabetic kidney
Description: (§2) Paraffin sections from non-diabetic and diabetic mice were deparaffinized prior to staining for apoptosis, makers for inflammation such as macrophages (F4/80, 1:100, Caltag Laboratories, Burlingame, Calif.) and phosphorylated NF-κB (p65 (Ser276), 1:25, Cell Signaling Technology, Inc, Danvers, Mass.), markers for oxidative stress, i.e., nitrotyrosine (1:140, Upstate Biotechnology Inc, Billerica, Mass.) and malondialdehyde (MDA, 1:100, Alpha Diagnostic International Inc, San Antonio, Tex.), and markers for endoplasmic reticulum (ER) stress, i.e., phosphorylated pancreatic ER kinase (PERK, 1:5, Santa Cruz Biotechnology, Santa Cruz, Calif.), and phosphorylated eukaryotic initiation factor 2α (eIF2α, 1:50, Stressgen Bioreagents Corp, Norwalk, Conn.).
(§3) Stained sections were examined under light microscopy (Zeiss Axioskop, Germany). The cortical area of the kidney was digitized under ×10 objective low power with a Sony 3CCD color video camera and a meta imaging series software (Molecular Devices, Downingtown, Pa.). The area of positively stained tubules and glomeruli was measured and expressed as the percentage of total cortical area. The intensity of the staining was also assessed using the color differentiation program.

[7] = test system: macrophages (F4/80); test: F4/80 immunostaining for macrophage infiltration in kidney; type: in vivo, mouse; settings: PPS treated 22 month-old diabetic mice
Description: as §2, §3

[8] = test system: NF-κB; test: NF-κB DNA binding, gel mobility shift assay (EMSA); type: cell-based, mouse; settings: proximal tubular cells, PPS 800 μg/ml for ½ hour before TNFα 10 ng/ml, nuclear protein after 1 hour
Experimental: Additionally, NF-κB DNA binding was examined by gel mobility shift assay (EMSA). Briefly, proximal tubular cells were pre-incubated with or without PPS (800 μg/ml) for ½ hour before the addition of TNFα (10 ng/ml). Nuclear protein was extracted from cells 1 hour after treatment. A NF-κB probe was prepared by annealing complementary single-stranded oligonucleotides with 5′-ACTG overhangs (MWG Biotechnologies, Inc.) and were labeled by filling in with [-^32P]dGTP and [-^32P]dCTP using Klenow enzyme. Labeled probes were purified with Nuctrap purification columns (Roche Applied Science). EMSAs were performed using 10^5 cpm of labeled probe and 10 μg of nuclear extracts/reaction. DNA binding complexes were separated by electrophoresis on a 5% polyacrylamide-Tris/glycine-EDTA gel, which was dried and exposed to X-ray film.

activity of post-heparin hepatic lipase, PPS- versus water-treated [2]: no differences | TNFα-induced increase in NF-κB DNA binding activity [8]: nearly completely blocked
Substance: pentosan polysulfate [PPS]
MMP-2 activity in aortic extracts [1]: significantly increased | activity of TIMP-1, -2, and -3 in aortic extracts [3]: marked increase | decrease in the levels of IκB phosphorylation [4]: 40-60% | Net MMP-2/MMP-9 activity, reduction compared to water-treated animals [5]: 27.74±4.32% | number of nuclei stained positively for phosphorylated NF-κB (p65 (Ser276)) [6]: noticeably reduced | macrophage infiltration in kidney (F4/80 immunostaining) [7]: largely prevented
